From DBAASP
Values after ≈ are worked out from the molar mass of the structure shown. Values joined by “and” are separate entries in the source; they are usually repeats but may differ in a detail not shown here. Equal entries are not always repeated.

How the values were obtained:
Test in all cases: ≥ marks a high value that may be exact or a test limit, other limits are often not marked, values filed in µg/mL are converted to µM
[1] = system: Escherichia coli ATCC 25922
Escherichia coli = system: Escherichia coli
Staphylococcus aureus = system: Staphylococcus aureus
[2] = system: Staphylococcus aureus ATCC 25923
Pseudomonas aeruginosa = system: Pseudomonas aeruginosa

Row | SMILES | MIC [1] | further results
1 | CC[C@H](C)[C@H](NC(=O)[C@H](CCCCN)NC(=O)[C@H](CC(C)C)NC(=O)[C@@H](NC(=O)[C@H](CCCCN)NC(=O)[C@H](C)N)C(C)C)C(=O)N[C@@H](CO)C(=O)N[C@@H](CCCN=C(N)N)C(=O)N[C@@H](CCCN=C(N)N)C(=O)N[C@@H](C)C(=O)N[C@@H](Cc1ccccc1)C(=O)N[C@@H](CCCN=C(N)N)C(=O)N[C@@H](CCCCN)C(N)=O [AKVLKISRRAFRK] | 22.5 µM and 63.6 µM | –
2 | CC(C)C[C@H](NC(=O)[C@H](CCC(N)=O)NC(=O)[C@H](CCCCN)NC(=O)[C@H](CCCCN)NC(=O)[C@@H]1CCCN1C(=O)[C@H](C)N)C(=O)N[C@@H](CCCCN)C(=O)N[C@@H](Cc1c[nH]c2ccccc12)C(=O)O [APKKQLKW] | 16 µM (≈ 16 µg/mL) | –
3 | CC(C)[C@H](NC(=O)[C@H](CC(N)=O)NC(=O)[C@H](CCCCN)NC(=O)[C@H](CCCN=C(N)N)NC(=O)[C@@H]1CCCN1C(=O)[C@H](C)N)C(=O)N[C@@H](CCCCN)C(=O)N[C@@H](Cc1c[nH]c2ccccc12)C(=O)O [APRKNVKW] | 64.1 µM (≈ 64 µg/mL) | –
4 | CC(C)[C@H](NC(=O)[C@H](CC(N)=O)NC(=O)[C@H](CCCCN)NC(=O)[C@H](CCCN=C(N)N)NC(=O)[C@@H]1CCCN1C(=O)[C@H](C)N)C(=O)N[C@@H](CCCN=C(N)N)C(=O)N[C@@H](Cc1ccccc1)C(=O)O [APRKNVRF] | 130 µM (≈ 128 µg/mL) | –
5 | CC(C)[C@@H]1NC(=O)[C@@H]2CSSC[C@H](NC(=O)[C@H](Cc3ccc(O)cc3)NC(=O)[C@@H](N)CSSC[C@@H](C(=O)O)NC1=O)C(=O)N[C@@H](CCCN=C(N)N)C(=O)N[C@@H](CCCN=C(N)N)C(=O)N[C@@H](CCCN=C(N)N)C(=O)N[C@@H](Cc1ccccc1)C(=O)N2 [CYCRRRFCVC] | – | MIC (Escherichia coli): 10.8 µM (≈ 14.1 µg/mL)
6 | CC[C@H](C)[C@H](NC(=O)[C@H](C)NC(=O)[C@H](CO)NC(=O)[C@@H](NC(=O)[C@@H](N)Cc1ccccc1)[C@@H](C)CC)C(=O)N[C@@H](C)C(=O)N[C@@H](CO)C(=O)N[C@@H](Cc1ccccc1)C(=O)N[C@@H](CC(C)C)C(=O)NCC(=O)N[C@@H](CCCCN)C(=O)N[C@@H](Cc1ccccc1)C(=O)N[C@@H](CC(C)C)C(=O)O [FISAIASFLGKFL] | – | MIC (Staphylococcus aureus): 130 µM (≈ 184 µg/mL)
7 | CC(C)C[C@H](NC(=O)[C@H](CC(C)C)NC(=O)[C@H](CCCCN)NC(=O)[C@H](CCCCN)NC(=O)[C@H](CC(C)C)NC(=O)[C@H](Cc1c[nH]c2ccccc12)NC(=O)[C@H](CCCCN)NC(=O)[C@H](CC(C)C)NC(=O)[C@@H](N)Cc1ccccc1)C(N)=O [FLKWLKKLL] | 6.73 µM and 13.5 µM | –
8 | CC[C@H](C)[C@H](NC(=O)[C@H](CCCN=C(N)N)NC(=O)[C@H](CCCCN)NC(=O)[C@H](CC(C)C)NC(=O)[C@H](C)NC(=O)CN)C(=O)N[C@@H](CCCCN)C(=O)N[C@H](C(=O)N[C@@H](CC(C)C)C(=O)N[C@@H](CC(C)C)C(N)=O)[C@@H](C)O [GALKRIKTLL] | > 38.7 µM | MIC [2]: > 38.7 µM
9 | CC[C@H](C)[C@H](NC(=O)CN)C(=O)N[C@@H](Cc1ccccc1)C(=O)N[C@@H](CC(C)C)C(=O)N[C@@H](CC(=O)O)C(=O)N[C@@H](CCCCN)C(=O)N[C@@H](CC(C)C)C(=O)N[C@@H](CCCCN)C(=O)N[C@@H](CC(N)=O)C(=O)N[C@@H](Cc1ccccc1)C(=O)N[C@@H](C)C(=O)N[C@@H](CCCCN)C(=O)NCC(=O)N[C@H](C(=O)N[C@@H](C)C(=O)N[C@@H](CCC(N)=O)C(=O)N[C@@H](CO)C(=O)N[C@@H](CC(C)C)C(=O)N[C@@H](CC(C)C)C(=O)N[C@@H](CC(N)=O)C(=O)N[C@@H](CCCCN)C(=O)N[C@@H](C)C(=O)N[C@@H](CO)C(=O)N[C@H]1CSSC[C@@H](C(=O)O)NC(=O)[C@H](CCC(N)=O)NC(=O)CNC(=O)[C@H](CO)NC(=O)[C@H](CC(C)C)NC(=O)[C@H](CCCCN)NC1=O)C(C)C [GIFLDKLKNFAKGVAQSLLNKASCKLSGQC] | 2 µM (≈ 6.36 µg/mL) | –
10 | CC[C@@H](C)[C@H](N=C(O)[C@H](CCCCN)N=C(O)[C@H](CS)N=C(O)[C@H](CCCCN)N=C(O)[C@H](CC(C)C)N=C(O)CN=C(O)C(CCC(=O)O)N=C(O)[C@H](CC(C)C)N=C(O)[C@H](CCCCN)N=C(O)CN=C(O)[C@H](C)N=C(O)[C@H](N=C(O)[C@H](CC(=O)O)N=C(O)[C@H](CCCCN)N=C(O)[C@H](C)N=C(O)[C@H](C)N=C(O)CN=C(O)C(CCCCN)N=C(O)C(CC(C)C)N=C(O)[C@H](N=C(O)C(CC(=O)O)N=C(O)[C@H](CC(C)C)N=C(O)[C@H](Cc1ccccc1)N=C(O)C(CC(C)C)N=C(O)CN)C(C)O)C(C)C)C(O)=N[C@H](C(O)=NCC(O)=N[C@H](CS)C(O)=N[C@H](CCCCN)C(O)=N[C@H](CC(C)C)C(=O)N1CCCC1C(=O)O)[C@@H](C)O (stereo not given in full) [GLFLDTLKGAAKDVAGKLEGLKCKITGCKLP] | – | MIC (Staphylococcus aureus): 60 µM (≈ 191 µg/mL)
11 | CC[C@H](C)[C@H](NC(=O)[C@H](CCCN=C(N)N)NC(=O)[C@H](C)NC(=O)[C@H](CC(C)C)NC(=O)[C@H](CC(C)C)NC(=O)CN)C(=O)N[C@@H](CCCCN)C(=O)N[C@H](C(=O)N[C@@H](CC(C)C)C(=O)N[C@@H](CC(C)C)C(N)=O)[C@@H](C)O [GLLARIKTLL] | 14.6 µM (≈ 16 µg/mL) | MIC [2]: 25.5 µM (≈ 28 µg/mL)
12 | CC[C@H](C)[C@H](NC(=O)[C@H](CC(N)=O)NC(=O)[C@H](CCCCN)NC(=O)[C@H](CC(C)C)NC(=O)[C@H](CC(C)C)NC(=O)CN)C(=O)N[C@@H](CCCCN)C(=O)N[C@H](C(=O)N[C@@H](CC(C)C)C(=O)N[C@@H](CC(C)C)C(N)=O)[C@@H](C)O [GLLKNIKTLL] | 30.6 µM (≈ 34 µg/mL) | MIC [2]: 62 µM (≈ 68.9 µg/mL)
13 | CC[C@H](C)[C@H](NC(=O)[C@H](C)NC(=O)CNC(=O)[C@H](C)NC(=O)[C@H](CCCCN)NC(=O)[C@H](CO)NC(=O)[C@H](C)NC(=O)[C@H](CCSC)NC(=O)CN)C(=O)N[C@@H](C)C(=O)NCC(=O)N[C@@H](CCCCN)C(=O)N[C@H](C(=O)N[C@@H](C)C(=O)N[C@@H](CCCCN)C(=O)N[C@H](C(=O)N[C@@H](C)C(=O)N[C@@H](CC(C)C)C(=O)N[C@@H](CCCCN)C(=O)N[C@@H](C)C(=O)N[C@@H](CC(C)C)C(=O)NCC(=O)NCC(=O)N[C@@H](CS)C(N)=O)C(C)C)[C@@H](C)CC [GMASKAGAIAGKIAKVALKALGGC] | 6.3 µM (≈ 13.8 µg/mL) | –
14 | CC[C@H](C)[C@H](NC(=O)[C@H](C)NC(=O)CNC(=O)[C@H](C)NC(=O)[C@H](CCCCN)NC(=O)[C@H](CO)NC(=O)[C@H](C)NC(=O)[C@H](CCSC)NC(=O)CN)C(=O)N[C@@H](C)C(=O)NCC(=O)N[C@@H](CCCCN)C(=O)N[C@H](C(=O)N[C@@H](C)C(=O)N[C@@H](CCCCN)C(=O)N[C@H](C(=O)N[C@@H](C)C(=O)N[C@@H](Cc1c[nH]c2ccccc12)C(=O)N[C@@H](CCCCN)C(=O)N[C@@H](C)C(=O)N[C@@H](CC(C)C)C(=O)NCC(=O)NCC(=O)N[C@@H](CO)C(N)=O)C(C)C)[C@@H](C)CC [GMASKAGAIAGKIAKVAWKALGGS] | 12.5 µM (≈ 28 µg/mL) | –
15 | CC[C@H](C)[C@H](NC(=O)[C@H](CCCN=C(N)N)NC(=O)[C@H](CCCCN)NC(=O)[C@H](CC(C)C)NC(=O)[C@H](CCSC)NC(=O)CN)C(=O)N[C@@H](CCCCN)C(=O)N[C@H](C(=O)N[C@@H](CC(C)C)C(=O)N[C@@H](CC(C)C)C(N)=O)[C@@H](C)O [GMLKRIKTLL] | 200 µM (≈ 234 µg/mL) | –
16 | CC(C)C[C@H](NC(=O)[C@H](Cc1ccccc1)NC(=O)[C@@H]1CCCN1C(=O)[C@H](Cc1c[nH]c2ccccc12)NC(=O)[C@H](Cc1c[nH]c2ccccc12)NC(=O)[C@H](Cc1c[nH]c2ccccc12)NC(=O)[C@@H]1CCCN1C(=O)[C@H](Cc1ccccc1)NC(=O)[C@H](CCCN=C(N)N)NC(=O)[C@H](CCCN=C(N)N)NC(=O)[C@@H](NC(=O)[C@@H](NC(=O)CN)[C@@H](C)O)C(C)C)C(=O)N[C@@H](CCCN=C(N)N)C(=O)N[C@@H](CCCN=C(N)N)C(=O)O [GTVRRFPWWWPFLRR] | 8 µM (≈ 16.5 µg/mL) | –
17 | C[C@@H](O)[C@H](NC(=O)[C@H](CO)NC(=O)[C@H](CO)NC(=O)[C@@H](N)CCCCN)C(=O)N[C@@H](CCCN=C(N)N)C(=O)NCC(=O)N[C@@H](CCCN=C(N)N)C(=O)N[C@@H](CCCCN)C(=O)N[C@@H](CO)C(=O)N[C@@H](CO)C(=O)N[C@@H](CCCN=C(N)N)C(=O)N[C@@H](CCCN=C(N)N)C(=O)N[C@@H](CCCCN)C(=O)N[C@@H](CCCCN)C(=O)O [KSSTRGRKSSRRKK] | 120 µM (≈ 200 µg/mL) | MIC [2]: > 308 µM
18 | CC[C@H](C)[C@H](NC(=O)[C@H](Cc1ccc(O)cc1)NC(=O)[C@H](Cc1c[nH]c2ccccc12)NC(=O)[C@H](CC(C)C)NC(=O)[C@H](Cc1c[nH]c2ccccc12)NC(=O)[C@H](CCCN=C(N)N)NC(=O)[C@@H](NC(=O)[C@@H](NC(=O)[C@H](CCCN=C(N)N)NC(=O)[C@H](Cc1ccccc1)NC(=O)[C@H](Cc1c[nH]c2ccccc12)NC(=O)[C@H](CCCN=C(N)N)NC(=O)[C@H](Cc1c[nH]c2ccccc12)NC(=O)[C@H](CC(C)C)NC(=O)[C@H](CCCN=C(N)N)NC(=O)[C@H](C)NC(=O)[C@H](Cc1c[nH]c2ccccc12)NC(=O)[C@@H](N)CCCCN)[C@@H](C)CC)[C@@H](C)O)C(=O)N[C@@H](CCCCN)C(N)=O [KWARLWRWFRITRWLWYIK] | – | MIC (Staphylococcus aureus): > 36.2 µM; MIC (Escherichia coli): > 36.2 µM
19 | CC[C@H](C)[C@H](NC(=O)[C@H](Cc1ccccc1)NC(=O)[C@H](CO)NC(=O)[C@H](CCCCN)NC(=O)[C@H](Cc1c[nH]c2ccccc12)NC(=O)[C@@H](N)CCCCN)C(=O)N[C@@H](CCCCN)C(=O)N[C@@H](CCCCN)C(=O)N[C@@H](CO)C(=O)N[C@H](C(=O)N[C@@H](CO)C(=O)N[C@@H](CCCCN)C(=O)N[C@@H](Cc1ccccc1)C(=O)N[C@@H](CC(C)C)C(=O)N[C@@H](Cc1cnc[nH]1)C(=O)N[C@@H](CO)C(=O)N[C@@H](C)C(=O)N[C@@H](CCCCN)C(=O)N[C@@H](CCCCN)C(=O)N[C@@H](Cc1ccccc1)C(N)=O)[C@@H](C)O [KWKSFIKKSTSKFLHSAKKF] | – | MIC (Pseudomonas aeruginosa): 20.6 µM (≈ 50 µg/mL)
20 | CC(C)C[C@H](NC(=O)[C@H](CCC(N)=O)NC(=O)[C@H](CCCCN)NC(=O)[C@H](CCCN=C(N)N)NC(=O)[C@H](Cc1ccccc1)NC(=O)[C@@H](N)CC(C)C)C(=O)N[C@@H](CCCCN)C(=O)N[C@@H](Cc1c[nH]c2ccccc12)C(=O)O [LFRKQLKW] | 1.79 µM (≈ 2 µg/mL) | –
